According to patent publication US20100035993A1, “METHODS AND COMPOSITIONS COMPRISING 2-[(3-CHLOROPHENYL) AMINO] PHENYLACETIC ACID FOR HYPERPERMEABILITY AND NEOVASCULARIZATION DISORDERS OF THE RETINA” (priority 2008, published 2010):

Legend:
[1] = tested on: PEDF; assay: PEDF in vitreous of streptozotocin-diabetic rats, immunoassay; format: in vivo, rat; conditions: vitreous of male streptozotocin-diabetic rats treated for 26 weeks with 15 mg/kg/day by gavage; Normal Control 15.3, Diabetic Control 4.6
Procedure: (§1) Vitreous was harvested from male rats that were rendered diabetic by intravenous injection of streptozotocin and that were treated for 26 weeks with 23CPPA (15 mg/kg/day) administered by gavage, and from age and gender matched diabetic and nondiabetic control rats. PEDF and VEGF were measured by immunoassay. The relative ratio of VEGF to PEDF in diabetic control rats and diabetic rats treated with 23CPPA was compared to that in nondiabetic control rats which was assigned an arbitrary value of 1.0.

[2] = tested on: VEGF; assay: VEGF in vitreous of streptozotocin-diabetic rats, immunoassay; format: in vivo, rat; conditions: vitreous of male streptozotocin-diabetic rats treated for 26 weeks with 15 mg/kg/day by gavage; Normal Control 75, Diabetic Control 167
Procedure: as §1

Structure (SMILES): O=C(O)Cc1ccccc1Nc1cccc(Cl)c1 [23CPPA, 2-[(3-chlorophenyl)amino]phenylacetic acid]
- PEDF [1]: 8.7 ng/mL
- VEGF [2]: 105 pg/mL
